From PMC4791597 (Scientific Reports, 2016)

Molecular target: T1, PrP^C (cellular prion protein) (Mus musculus, UniProt P04925)
T1 construct: gene Prnp
Assay type: binding

T1 sequence (P04925 23-230 limits assumed): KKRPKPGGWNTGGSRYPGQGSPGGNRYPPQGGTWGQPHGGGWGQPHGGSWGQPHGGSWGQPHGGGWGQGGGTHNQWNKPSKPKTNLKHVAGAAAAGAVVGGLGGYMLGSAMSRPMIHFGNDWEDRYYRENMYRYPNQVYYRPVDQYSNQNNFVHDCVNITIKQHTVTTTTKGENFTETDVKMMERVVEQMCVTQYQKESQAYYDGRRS

For `C[n+]1ccc(C2=C3C=CC(=N3)C(c3cc[n+](C)cc3)=c3ccc4[n]3[Fe+][n]3c2ccc3C(c2cc[n+](C)cc2)=C2C=CC(=N2)C=4c2cc[n+](C)cc2)cc1` [Fe(III)-TMPyP], the Kd was 1.21 µM.
